According to patent US20030158250A1, “Agents correcting gene expression regulatory error” (priority 2000, published 2003):

Tests used:
Type in all cases: cell-based
[1] = tested on: adenosine A2a receptor (ADORA2A); assay: RT-PCR expression level of ADORA2A gene in monocytes; settings: human monocytes, 35 PCR cycles
Protocol: (§1) Four-hundred milliliters of blood was collected from a human normal individual donor. The collected blood was diluted 2-folds with PBS(−), overlaid on Ficoll-paque (manufactured by Pharmacia), and centrifuged at 500×g for 20 minutes. The peripheral blood mononuclear cells (PBMCs) in the intermediate layer was collected with a pipette, and washed with RPMI 1640 medium (manufactured by Bio Whittaker). The collected PBMCs was suspended in a storage solution of 90% FCS (manufactured by JRH Biosciences)/10% dimethyl sulfoxide, and stored in liquid nitrogen. During the experiment, these stored PBMCs were rapidly melted in water bath at 37° C., and washed with RPMI 1640 medium containing 10 μg/ml Dnase (manufactured by Calbiochem). Thereafter, the number of living cells was calculated by trypan blue staining method, and subjected to each experiment.
(§2) PBMCs were suspended in RPMI 1640 medium containing 5% human serum of blood type-AB, 0.1 mM nonessential amino acid, 1 mM sodium pyruvate, 2 mM L-glutamine (hereinabove manufactured by Bio Whittaker), 10 mM HEPES (manufactured by nakalai tesque), and 1% streptomycin-penicillin (manufactured by Gibco BRL) (hereinafter simply referred to as “5HRPMI medium”) so as to have a concentration of 4×10^6 cells/ml. Thereafter, the suspension was spread on a 6-well cell culture plate (manufactured by Falcon) in a volume of 3 ml/well, and the cells were incubated in a wet-type incubator at 37° C. and 5% CO2 for 1.5 hours. After 1.5 hours, the non-adherent cells were removed by suction, and each well was washed with RPMI 1640 medium, and 2 ml of the 5HRPMI medium was added to the wells, to give monocytes.
(§3) To the monocytes obtained above was added in each well 8 μl of an aqueous DGE solution, or 8 μl of water as a control, and the cells were incubated in a wet-type incubator at 37° C. and 5% CO2 for 5 hours. Thereafter, with addition of 2 μl of a 1 μg/ml aqueous LPS solution or 2 μl of a 25 μM TPA dimethyl sulfoxide solution to each well, or with addition of neither of these substances thereto, the cells were cultured for additional 4 hours. Thereafter, RNA was prepared from each cell in accordance with the description of the kit using RNeasy Mini Kit (manufactured by QIAGEN, 74104). The group with addition of water alone or the aqueous DGE solution alone to the cells was set as a negative control, and the group with addition of water and the aqueous LPS solution or the aqueous TPA solution to the cells was set as a positive control.
(§4) A liquid mixture having a total volume of 60 μl of 0.5 μg of RNA prepared above, 10 mM Tris-HCl (pH 8.3), 50 mM KCl, 5 mM MgCl2, 1 mM dNTP mixtures, 150 pmol of Random 6 mers, 60 U Ribonuclease Inhibitor (manufactured by Takara Shuzo Co., Ltd., 2310A), and 15 U Reverse Transcriptase XL (AMV) (manufactured by Takara Shuzo Co., Ltd., 2620A) were incubated at 30° C. for 10 minutes and thereafter at 42° C. for 1 hour using a thermal cycler (GeneAmp PCR System 9600, manufactured by Applied Biosystems), and the mixture was heated at 99° C. for 5 minutes to deactivate the enzyme, to give cDNA.
(§5) Oligonucleotide primers for reaction of PCR were designed based on mRNA nucleotide sequence of each gene listed in the following tables, and synthesized in the same manner as above. In Tables 4 and 5, each gene evaluated in this Example, GenBank Accession NO, the name of oligonucleotide primers and SEQ ID NOs of the primers in Sequence Listing were listed. […]

[2] = tested on: myeloid leukemia cell differentiation protein-1 (MCL1); assay: RT-PCR expression level of MCL1 gene in monocytes; settings: human monocytes, 30 PCR cycles
Protocol: as §1, §2, §3, §4, §5

interleukin-1α (IL-1α) = assay: RT-PCR expression level of IL-1α gene in monocytes; settings: human monocytes, 30 PCR cycles
Protocol: as §1, §2, §3, §4, §5

transketolase (TK) = assay: RT-PCR expression level of TK gene in monocytes; settings: human monocytes, 30 PCR cycles
Protocol: as §1, §2, §3, §4, §5

[3] = tested on: matrix metalloproteinase-9 (MMP-9); assay: RT-PCR expression level of MMP-9 gene in monocytes; settings: human monocytes, 30 PCR cycles
Protocol: as §1, §2, §3, §4, §5

[4] = tested on: interferon-inducible protein p78 (IFNp78); assay: RT-PCR expression level of IFNp78 gene in monocytes; settings: human monocytes, 30 PCR cycles
Protocol: as §1, §2, §3, §4, §5

[5] = tested on: macrophage inflammatory protein-1-β (MIP1β); assay: RT-PCR expression level of MIP1β gene in monocytes; settings: human monocytes, 30 PCR cycles
Protocol: as §1, §2, §3, §4, §5

[6] = tested on: Nef-associated factor-1 (NAF1); assay: RT-PCR expression level of NAF1 gene in monocytes; settings: human monocytes, 30 PCR cycles
Protocol: as §1, §2, §3, §4, §5

[7] = tested on: interferon-induced 17-kDa/15-kDa protein (IFNp15/p17); assay: RT-PCR expression level of IFNp15/p17 gene in monocytes; settings: human monocytes, 30 PCR cycles
Protocol: as §1, §2, §3, §4, §5

[8] = tested on: interleukin-7 receptor (IL-7r); assay: RT-PCR expression level of IL-7r gene in monocytes; settings: human monocytes, 30 PCR cycles
Protocol: as §1, §2, §3, §4, §5

[9] = L + D: DGE and LPS, LPS alone +++
[10] = T + D: DGE and TPA, TPA alone +
[11] = substance added alone, Con. (water) +
[12] = L + D: DGE and LPS, LPS alone +/−
[13] = substance added alone, Con. (water) +/−
[14] = T + D: DGE and TPA, TPA alone −
[15] = substance added alone, Con. (water) −
[16] = L + D: DGE and LPS, LPS alone ++

Row | Compound | expression level of ADORA2A gene [1, 11] | expression level of MCL1 gene [2, 11] | expression level of IL-1α gene (interleukin-1α (IL-1α); [13]) | expression level of TK gene (transketolase (TK); [13]) | expression level of MMP-9 gene [3, 15] | expression level of IFNp78 gene [4, 11] | expression level of MIP1β gene [5, 11] | expression level of NAF1 gene [6, 11] | expression level of IFNp15/p17 gene [7, 11] | expression level of IL-7r gene [8, 13] | also measured
1 | O=C1C=CC(CO)OC1O [DGE, L-glycero-1,5-epoxy-1αβ,6-dihydroxy-cis-hex-3-en-2-one] | +/− | + | − | +/− | − | +/− | +/− | − | + | − | expression level of ADORA2A gene [1, 9]: −; expression level of ADORA2A gene [1, 10]: −; expression level of MCL1 gene [2, 12]: +; expression level of MCL1 gene [2, 10]: +; expression level of IL-1α gene (interleukin-1α (IL-1α); [9]): +/−; expression level of IL-1α gene (interleukin-1α (IL-1α); [10]): −; expression level of TK gene (transketolase (TK); [12]): +; expression level of TK gene (transketolase (TK); [14]): +; expression level of MMP-9 gene ([3]; L + D: DGE and LPS, LPS alone −): −; expression level of MMP-9 gene [3, 10]: −; expression level of IFNp78 gene [4, 16]: −; expression level of IFNp78 gene [4, 10]: +/−; expression level of MIP1β gene [5, 9]: +/−; expression level of MIP1β gene ([5]; T + D: DGE and TPA, TPA alone ++): +/−; expression level of NAF1 gene [6, 16]: +/−; expression level of NAF1 gene ([6]; T + D: DGE and TPA, TPA alone +/−): −; expression level of IFNp15/p17 gene [7, 9]: +/−; expression level of IFNp15/p17 gene [7, 10]: +/−; expression level of IL-7r gene [8, 16]: −; expression level of IL-7r gene [8, 14]: −
2 | 12-o-tetradecanoylphorbol 13-acetate [TPA, reference compound] | + | + | + | − | + | + | ++ | +/− | + | − | 
3 | lipopolysaccharide [LPS, reference compound] | +++ | +/− | +++ | +/− | − | ++ | +++ | ++ | +++ | ++ | 
